Assay results published in patent publication US20160237158A1, “Methods and Compositions for Targeting Tumor Microenvironment and for preventing Metastasis” (INSTITUT NATIONAL DE LA SANTÉ ET DA LA RECHERCHE MÉDICALE …, priority 2013, published 2016).

Experiments:
fibroblasts = experiment: Fibroblast contractility (collagen lattices) and pro-invasive activity (organotypic invasion) induced by human tumour cell conditioned media; assay type: cell-based; design: key to Fibroblasts contractile & pro-invasive phenotype: +: induction; −: no induction
Protocol: In this assay, hDF or CAFs were cultured during one week in serum-free medium (with either vehicle or cytokines) or CM before embedding in matrix gel. 5×10^5 fibroblasts were embedded in a 1 ml mixture of collagen I and Matrigel18. After the gel was set at 37° C. for 1 h, 5×10^5 SCC12 were plated on top of the gel in complete media. The next day, the gel was lifted onto individual collagen coated nylon discs resting on metal bridges and fed from underneath with daily changes of complete media (with either vehicle or inhibitors), allowing the epithelial layer to grow at an air-liquid interface.
After 5 days, cultures were fixed (4% paraformaldehyde+0.25% glutaraldehyde in PBS) and processed for haematoxylin and eosin (H&E) staining by standard methods. Invasion assay was measuring the total area of SCC cells and the area of non-invading SCC cells using imageJ software (http://rsbweb.nih.gov/ij/). The value of invasion index shown is the average 1−(non-invading area/total area) of at least ten fields from three or more independent experiments. Error bars are the standard deviation.
2.5×10^4 Fibroblasts were embedded in 100 μl of matrix gel (the Collagen-Matrigel mixture used for organotypic invasion assays) and plated into wells of a 96 well plate^57. After 1 h at 37° C., the matrices were overlaid with 100 μl serum-free medium (with either vehicle, cytokines or inhibitors) or CM. Every 2 days, medium was changed and at day 6 the gels were photographed and the respective diameters of the well and gel were measured using ImageJ. The percentage contraction was calculated using the formula 100*(well diameter−gel diameter)/well diameter.
Neutralizing antibody against LIF (AB-250-NA, R&D, Minneapolis, Minn.), IL-6 R (AB-227-NA, R&D) or TGF beta-1,2,3 (MAB1835, R&D) were used at 10 μg/ml otherwise stated. Neutralizing antibody were incubated one hour with conditioned media before being used for matrix remodelling assay and fibroblasts stimulation to neutralize the biological activity of selected cytokines.
Cancer Cells were grown to confluence, washed twice with PBS and then incubated in serum-free medium at 37° C. After 48 hours, conditioned medium was collected, centrifugated at 5000 g for 5 minutes to remove cell debris and the supernatant stored at −80° C. For immunobloting analysis, fibroblasts were stimulated with cancer cells conditioned media for 5 min, otherwise stated, and lysed as described in the immunbloting section. To analyse LIF secretion upon TGFβ-1 stimulation, fibroblasts were stimulated with 2 ng/ml TGF beta-1 for 1, 4, 24 or 48 h in serum-free medium and conditioned media was prepared as below for ELISA analysis.

410.4 cells = experiment: Orthotopic tumours in BALB/c mice; assay type: in vivo, mouse; details: 21-day oral gavage, 30 mg/kg/day
Protocol: (§1) After embedding in paraffin, tissue sections from organotypic culture, skin from human breast and foreskin, and human skin carcinomas were prepared on slides using standard methods. Collagen assembly was evaluated by Sirius Red staining. Briefly, sections were first incubated with Weigert's iron hematoxylin (#C0231, Diapath, Martinengo, Italy) for 8 minutes and washed in distilled water for 10 minutes. Sections were next incubated with 1% Sirius Red in saturated picric acid for 1 hour. The slides were then washed twice with 0.5% acetic acid in distilled H2O, dehydrated and mounted using classical procedures. Sections were analysed using polarized light imaging and confocal laser microscopy with a LSM 5 EXCITER confocal microscope (Carl Zeiss, Germany). Collagen fibres thickness and length were quantified using ImageJ software.
6-8 weeks old female BALB/c mice were anesthetized using ketamine and xelazine by peritoneal injection. Skin was incised and 5.10^3 67NR or 410.4 cells (5.10^3) were injected into the right and left 4th mammary fat pad in 10 μl of PBS for each mouse. 67NR group consisted of 2 mice (4 primary tumours), 410.^4 group consisted of 7 mice (14 tumours) and 410.4 with additional treatment of Ruxolitinib (30 mg/kg/day) group consisted of 5 mice (10 tumours). Mice were sacrificed 30 days post-injection and Ruxolitinib treatment started 7 days after injection, primary tumours were removed and fixed in PBS containing 3.7% formalin for 8 hours, followed by was with PBS and transfer to 70% ethanol, and then embedded in paraffin, sectioned and stained with haematoxylin and eosin. Immunohistochemistry detection using anti-LIF, anti-p-STAT3 and anti-alpha-SMA antibodies was performed on paraffin sections following manufactures instructions.

hDF = experiment: Collagen fibre assembly in 3D-organotypic cultures (Sirius Red); assay type: cell-based, human; details: hDF stimulated by either TGFβ1 or LIF
Protocol: as §1

[1] = mice implanted with 401.4 cells

## N#CCC(C1CCCC1)n1cc(-c2ncnc3[nH]ccc23)cn1 (centres unmarked) [Ruxolitinib, 3-Cyclopentyl-3-[4-(7H-pyrrolo[2,3-d]pyrimidin-4-yl)-1H-pyrazol-1-yl]propanenitrile]
fibroblasts; A375M2 CM (h. melanoma), antibodies 10 μg·ml−1, αLIF (50)
  Fibroblasts contractile & pro-invasive phenotype: −
fibroblasts; A375P CM (h. melanoma), antibodies 10 μg·ml−1
  Fibroblasts contractile & pro-invasive phenotype: −
fibroblasts; A549 CM (h. lung carcinoma), antibodies 10 μg·ml−1
  Fibroblasts contractile & pro-invasive phenotype: −
fibroblasts; CAL27 CM (human OSCC), antibodies 10 μg·ml−1, αLIF (50)
  Fibroblasts contractile & pro-invasive phenotype: −
fibroblasts; CAL33 CM (human OSCC), antibodies 10 μg·ml−1
  Fibroblasts contractile & pro-invasive phenotype: −
fibroblasts; CAL33_LIF CM (h. engineered cell line), antibodies 10 μg·ml−1, αLIF (50)
  Fibroblasts contractile & pro-invasive phenotype: −
fibroblasts; CAL33_mock CM (h. engineered cell line), antibodies 10 μg·ml−1
  Fibroblasts contractile & pro-invasive phenotype: −
fibroblasts; CAL60 CM (human OSCC), antibodies 10 μg·ml−1
  Fibroblasts contractile & pro-invasive phenotype: −
fibroblasts; CAL166 CM (human OSCC), antibodies 10 μg·ml−1
  Fibroblasts contractile & pro-invasive phenotype: −
fibroblasts; Detroit562 CM (human OSCC), antibodies 10 μg·ml−1
  Fibroblasts contractile & pro-invasive phenotype: −
fibroblasts; LS174 CM (h. colon carcinoma), antibodies 10 μg·ml−1
  Fibroblasts contractile & pro-invasive phenotype: −
fibroblasts; MDA-MB-231 CM (breast carcinoma), antibodies 10 μg·ml−1
  Fibroblasts contractile & pro-invasive phenotype: −
fibroblasts; MDA-MB-468 CM (breast carcinoma), antibodies 10 μg·ml−1
  Fibroblasts contractile & pro-invasive phenotype: −
fibroblasts; Mel501 CM (h. melanoma), antibodies 10 μg·ml−1
  Fibroblasts contractile & pro-invasive phenotype: −
fibroblasts; Mel1205 CM (h. melanoma), antibodies 10 μg·ml−1
  Fibroblasts contractile & pro-invasive phenotype: −
fibroblasts; SCC12 CM (human OSCC), antibodies 10 μg·ml−1
  Fibroblasts contractile & pro-invasive phenotype: −
fibroblasts; SCC13 CM (human OSCC), antibodies 10 μg·ml−1
  Fibroblasts contractile & pro-invasive phenotype: −
fibroblasts; SCC25 CM (human OSCC), antibodies 10 μg·ml−1
  Fibroblasts contractile & pro-invasive phenotype: −
fibroblasts; Sbcl2 CM (h. melanoma), antibodies 10 μg·ml−1
  Fibroblasts contractile & pro-invasive phenotype: −
fibroblasts; WM35 CM (h. melanoma), antibodies 10 μg·ml−1
  Fibroblasts contractile & pro-invasive phenotype: −
fibroblasts; WM278 CM (h. melanoma), antibodies 10 μg·ml−1
  Fibroblasts contractile & pro-invasive phenotype: −
fibroblasts; WM793 CM (h. melanoma), antibodies 10 μg·ml−1
  Fibroblasts contractile & pro-invasive phenotype: −
fibroblasts; hPK CM, antibodies 10 μg·ml−1
  Fibroblasts contractile & pro-invasive phenotype: −
410.4 cells; [1]
  STAT3 phosphorylation within the tumour microenvironment in vivo: inhibited
  αSMA staining: without influencing
410.4 cells; mice implanted with 401.4 cells, FIG. 4B
  rates of invasion of the tumour cells: significant reduced
410.4 cells; mice implanted with 401.4 cells, FIG. 4C
  Sirius Red staining and formation of collagen bundles: reduced
410.4 cells; mice implanted with 410.4 cells
  LIF production: without influencing
hDF
  capacity to assembly polarized collagen fibres: inhibited
